Test results reported in patent US20100267561A1, “HERBICIDAL PYRIDAZINONE DERIVATIVES” (priority 2007, published 2010).

Key:
Assay in all cases: Test E pre-/postemergence plant response
Format in all cases: in vivo
Details in all cases: Postemergence, scale 0 to 100
[1] = system: surinam grass (Brachiaria decumbens)
[2] = system: Italian ryegrass (Lolium multiflorum)
[3] = system: pitted morningglory (Ipomoea lacunosa)
[4] = system: green foxtail (Setaria viridis)
[5] = system: common mallow (Malva sylvestris)
[6] = system: broadleaf signalgrass (Brachiaria platyphylla)
[7] = system: guineagrass (Panicum maximum)
[8] = system: quackgrass (Elytrigia repens)
[9] = system: dallisgrass (Paspalum dilatatum)
[10] = system: barnyardgrass (Echinochloa crus-galli)
[11] = system: johnsongrass (Sorghum halepense)
[12] = system: large crabgrass (Digitaria sanguinalis)

Question: Which “Plant response rating, Surinam Grass” value ([1]; 8 g ai/ha) does the source give for `Cc1cc(-c2ccc(Cl)cc2)nn1-c1c(OC(=O)Oc2ccccc2)cnn(C)c1=O` [Compound 54] here?
Answer: 90

Question: What about the “Plant response rating, Surinam Grass” value ([1]; 16 g ai/ha) of the same compound?
Answer: 90

Question: And the “Plant response rating, Surinam Grass” value ([1]; 31 g ai/ha)?
Answer: 100

Question: And the “Plant response rating, Surinam Grass” value ([1]; 62 g ai/ha)?
Answer: 100

Question: And the “Plant response rating, Ryegrass, Italian” value ([2]; 8 g ai/ha)?
Answer: 80

Question: What about the “Plant response rating, Ryegrass, Italian” value ([2]; 16 g ai/ha) of the same compound?
Answer: 80

Question: What about the “Plant response rating, Ryegrass, Italian” value ([2]; 31 g ai/ha) of the same compound?
Answer: 100

Question: And the “Plant response rating, Ryegrass, Italian” value ([2]; 62 g ai/ha)?
Answer: 100

Question: And the “Plant response rating, Morningglory” value ([3]; 8 g ai/ha)?
Answer: 0

Question: And the “Plant response rating, Morningglory” value ([3]; 16 g ai/ha)?
Answer: 0

Question: And the “Plant response rating, Morningglory” value ([3]; 31 g ai/ha)?
Answer: 0

Question: And the “Plant response rating, Morningglory” value ([3]; 62 g ai/ha)?
Answer: 0

Question: What about the “Plant response rating, Foxtail, Green” value ([4]; 8 g ai/ha) of the same compound?
Answer: 40

Question: What about the “Plant response rating, Foxtail, Green” value ([4]; 16 g ai/ha) of the same compound?
Answer: 70

Question: What about the “Plant response rating, Foxtail, Green” value ([4]; 31 g ai/ha) of the same compound?
Answer: 80

Question: What about the “Plant response rating, Foxtail, Green” value ([4]; 62 g ai/ha) of the same compound?
Answer: 98

Question: What about the “Plant response rating, Mallow” value ([5]; 8 g ai/ha) of the same compound?
Answer: 0

Question: What about the “Plant response rating, Mallow” value ([5]; 16 g ai/ha) of the same compound?
Answer: 0

Question: And the “Plant response rating, Mallow” value ([5]; 31 g ai/ha)?
Answer: 0

Question: What about the “Plant response rating, Mallow” value ([5]; 62 g ai/ha) of the same compound?
Answer: 0

Question: And the “Plant response rating, Signalgrass” value ([6]; 8 g ai/ha)?
Answer: 75

Question: What about the “Plant response rating, Signalgrass” value ([6]; 16 g ai/ha) of the same compound?
Answer: 90

Question: And the “Plant response rating, Signalgrass” value ([6]; 31 g ai/ha)?
Answer: 98

Question: And the “Plant response rating, Signalgrass” value ([6]; 62 g ai/ha)?
Answer: 100

Question: And the “Plant response rating, Guineagrass” value ([7]; 8 g ai/ha)?
Answer: 95

Question: And the “Plant response rating, Guineagrass” value ([7]; 16 g ai/ha)?
Answer: 95

Question: And the “Plant response rating, Guineagrass” value ([7]; 31 g ai/ha)?
Answer: 95

Question: And the “Plant response rating, Guineagrass” value ([7]; 62 g ai/ha)?
Answer: 100

Question: What about the “Plant response rating, Quackgrass” value ([8]; 8 g ai/ha) of the same compound?
Answer: 0

Question: What about the “Plant response rating, Quackgrass” value ([8]; 16 g ai/ha) of the same compound?
Answer: 0

Question: What about the “Plant response rating, Quackgrass” value ([8]; 31 g ai/ha) of the same compound?
Answer: 0

Question: And the “Plant response rating, Quackgrass” value ([8]; 62 g ai/ha)?
Answer: 35

Question: What about the “Plant response rating, Dallisgrass” value ([9]; 8 g ai/ha) of the same compound?
Answer: 20

Question: What about the “Plant response rating, Dallisgrass” value ([9]; 16 g ai/ha) of the same compound?
Answer: 30

Question: And the “Plant response rating, Dallisgrass” value ([9]; 31 g ai/ha)?
Answer: 40

Question: What about the “Plant response rating, Dallisgrass” value ([9]; 62 g ai/ha) of the same compound?
Answer: 80

Question: What about the “Plant response rating, Barnyardgrass” value ([10]; 8 g ai/ha) of the same compound?
Answer: 95

Question: And the “Plant response rating, Barnyardgrass” value ([10]; 16 g ai/ha)?
Answer: 98

Question: And the “Plant response rating, Barnyardgrass” value ([10]; 31 g ai/ha)?
Answer: 100

Question: And the “Plant response rating, Barnyardgrass” value ([10]; 62 g ai/ha)?
Answer: 100

Question: And the “Plant response rating, Johnsongrass” value ([11]; 8 g ai/ha)?
Answer: 20

Question: What about the “Plant response rating, Johnsongrass” value ([11]; 16 g ai/ha) of the same compound?
Answer: 60

Question: What about the “Plant response rating, Johnsongrass” value ([11]; 31 g ai/ha) of the same compound?
Answer: 100

Question: What about the “Plant response rating, Johnsongrass” value ([11]; 62 g ai/ha) of the same compound?
Answer: 100

Question: And the “Plant response rating, Crabgrass, Large” value ([12]; 8 g ai/ha)?
Answer: 25

Question: What about the “Plant response rating, Crabgrass, Large” value ([12]; 16 g ai/ha) of the same compound?
Answer: 80

Question: And the “Plant response rating, Crabgrass, Large” value ([12]; 31 g ai/ha)?
Answer: 95

Question: What about the “Plant response rating, Crabgrass, Large” value ([12]; 62 g ai/ha) of the same compound?
Answer: 100
